# Source: patent US20150197802A1 (priority 2012, published 2015)
# Like-named read-outs stand apart in the source and are kept apart here.
# Legend:
# HPTC = format: cell-based, human
# renal proximal tubule = conditions: cited from earlier work; for classification of the test compound with regard to nephrotoxicity: group of the test compound; for nephrotoxic effects in humans: clinical, clinically relevant concentrations
# [1] = system: human primary renal proximal tubular cells (HPTC); assay: IL-6 and IL-8 expression (qPCR) in renal proximal tubular cells after 16 h exposure
compound,measurement,setting,value
[Cl][Cd][Cl] [CdCl2],"IL-8 expression, up-regulation compared with the other marker genes tested","HPTC; two batches of HPTC, high doses (2.5 mg/ml gentamicin, 10 mg/ml CdCl2), FIG. 1",highest levels of up-regulation
[Cl][Cu][Cl] [CuCl2],classification of the test compound with regard to nephrotoxicity,renal proximal tubule,PT-specific nephrotoxin
N.N.[Cl][Pt][Cl] [cisplatin],cell death,"[1]; HPTC 1, highest concentration tested, dose-response FIG. 2",massive cell death
C[C@@H]1C[C@H]2[C@@H]3CCC4=CC(=O)C=C[C@]4(C)[C@@]3(F)[C@@H](O)C[C@]2(C)[C@@]1(O)C(=O)CO [dexamethasone],classification of the test compound with regard to nephrotoxicity,renal proximal tubule,not nephrotoxic
OCCO [ethylene glycol],classification of the test compound with regard to nephrotoxicity,renal proximal tubule,non-PT-specific nephrotoxin
C[C@H](Cn1cnc2c(N)ncnc21)OCP(=O)(O)O [tenofovir],nephrotoxic effects in humans,renal proximal tubule,injures the renal proximal tubules
CN(C)[C@@H]1C(O)=C(C(N)=O)C(=O)[C@@]2(O)C(O)=C3C(=O)c4c(O)cccc4[C@@](C)(O)[C@H]3C[C@@H]12 [tetracycline],nephrotoxic effects in humans,renal proximal tubule,"usually no obvious nephrotoxic effects, but can induce AKI and ESRD in patients with pre-existing kidney disease"
same,test result in the IL-6/IL-8 expression method (positive = predicted PT-specific nephrotoxin),"[1]; 1 μg/ml to 1000 μg/ml, 16 h",positive
gentamicin,"IL-8 expression, up-regulation compared with the other marker genes tested",HPTC,highest levels of up-regulation
